Reference: patent US20250102493A1, “COMPOSITIONS AND METHODS FOR TREATMENT OF ANEUPLOID CANCERS” (Yale University, priority 2023, published 2025)

Legend:
HAP1 UCK2-knockout cells = assay: 72-hour drug assay in UCK2-knockout HAP1 cells; assay type: cell-based; conditions: haploid HAP1 cell line, UCK2 deleted with CRISPR
Description: (§1) Following this, the cells were harvested and counted.
HAP1 cells harboring a CRISPR-induced frameshift mutation in the UCK2 gene were purchased from Horizon Discovery (cat. no. HZGHC007067c006). Loss of UCK2 expression was verified by western blotting.
First, as the mechanism of many cancer drugs is poorly understood (Lin, et al., Sci. Transl. Med. 11 (2019), Lin & Sheltzer, Nat. Rev. Genet. 21, 671-682 (2020)),whether the cytotoxicity of RX-3117 and 3-deazauridine requires UCK2 expression was assessed.

A2780 cells = assay: 72-hour drug assay in A2780 1q-trisomic and 1q-disomic cells; assay type: cell-based, human; conditions: for sensitivity of cells harboring a trisomy of chromosome 1q compared to isogenic cells containing two copies of chromosome 1q: A2780, FIG. 6D; for sensitivity of 1q disomic cells compared to 1q trisomic cells: A2780 WT (1q trisomic) and engineered 1q disomic clones C1-C4
Description: as §1

MCF10A cells [1] = assay: 72-hour drug assay in MCF10A 1q-trisomic and 1q-disomic cells; assay type: cell-based, human; conditions: FIG. 6D
Description: as §1

MCF10A cells [2] = assay: Cellular competition between 1q-trisomic and 1q-disomic MCF10A cells; assay type: cell-based, human
Method: For the competition experiment, two independent experiments were performed: one when cells were mixed at an 80-20 ratio and one when cells were mixed at a 90:10 ratio. Similar results were obtained in both experiments.
Whether the greater sensitivity of 1q-trisomic cells to UCK2 substrates could be used to re-direct cellular evolution away from aneuploidy and towards a disomic state with lower malignant potential was assessed (FIG. 6E). Fluorescently-labeled 1q-trisomic and 1q-disomic MCF10A cells were mixed at a ratio of 20:80 and then co-cultured the two cell populations. After nine days of growth in drug-free medium, the trisomic cells had expanded to include 75% of the culture, but when the same cell populations were grown in the presence of 500 nM 3-deazauridine, the trisomic population decreased to include only 4% of the final culture (FIG. 6F).

NCI-60 cell line panel = conditions: NCI-60 panel (Luna et al.); cited from earlier work
A2058 cells = assay: 72-hour drug assay in A2058 1q-trisomic and 1q-disomic cells; assay type: cell-based, human
Description: as §1

AGS cells = assay: 72-hour drug assay in AGS 1q-trisomic and 1q-disomic cells; assay type: cell-based, human
Description: as §1

DLD1 colon cancer cells = assay: Drug sensitivity of DLD1 trisomy-1 cells and parental DLD1 cells; assay type: cell-based; conditions: P<0.005; t-test
Method: The DLD1 trisomy 1 clone was generated as previously described in ref (Vasudevan, et al., Dev. Cell. 52, 413-428.e6 (2020)). In brief, DLD1 cells were transiently treated with 1 μM AZ3146 (Selleck Chemicals; cat. no. S2731) for 24 hours, and then the drug was washed out and the cells were allowed to recover for 24 hours. Following the recovery passage, single-cell sorting was performed to isolate individual aneuploid clones. SMASH-Seq was used to identify a clone harboring a trisomy of chromosome 1.
as §1

For `O=C1C=CN([C@@H]2O[C@H](CO)[C@@H](O)[C@H]2O)C(=O)C1` [3-deazauridine], the “response of UCK2-knockout cells to the compound” value (HAP1 UCK2-knockout cells) was “highly resistant”, the “sensitivity of cells harboring a trisomy of chromosome 1q compared to isogenic cells containing two copies of chromosome 1q” value (A2780 cells) was “more sensitive” and the “sensitivity of 1q disomic cells compared to 1q trisomic cells” value (A2780 cells) was “less sensitive”. The “sensitivity of cells harboring a trisomy of chromosome 1q compared to isogenic cells containing two copies of chromosome 1q” value (MCF10A cells [1]) was “more sensitive”, the “trisomic population in the final culture” value (MCF10A cells [2]; 500 nM 3-deazauridine, nine days, 1q-trisomic and 1q-disomic MCF10A mixed at 20:80, 75% in drug-free medium) was 4% and the “effect on outgrowth of the 1q-trisomic subpopulation” value (MCF10A cells [2]; trisomic and disomic MCF10A mixed at 20% to 80%, FIG. 6F) was “prevents the outgrowth of the 1q-trisomic subpopulation”. The “correlation of UCK2 expression with sensitivity to the compound” value (NCI-60 cell line panel) was “higher UCK2 expression correlates with greater sensitivity”.
In the case of `Nc1ccn([C@@H]2C(F)=C(CO)[C@@H](O)[C@H]2O)c(=O)n1` [RX-3117], the “response of UCK2-knockout cells to the compound” value (HAP1 UCK2-knockout cells) is reported as “highly resistant”, the “effect of ectopic overexpression of UCK2 cDNA on sensitivity to the compound” value (A2780 cells; 1q-disomic A2780 cells) is reported as “increase sensitivity” and the “effect of deleting a single copy of UCK2 on sensitivity to the compound” value (A2780 cells; 1q-trisomic A2780 cells) is reported as “decrease sensitivity”. For the same compound, the “sensitivity of cells harboring a trisomy of chromosome 1q compared to isogenic cells containing two copies of chromosome 1q” value (A2780 cells) was “more sensitive”, the “sensitivity of 1q disomic cells compared to 1q trisomic cells” value (A2780 cells) was “less sensitive” and the “sensitivity of cells harboring a trisomy of chromosome 1q compared to isogenic cells containing two copies of chromosome 1q” value (MCF10A cells [1]) was “more sensitive”. For the same compound, the “difference in sensitivity between 1q-trisomic and 1q-disomic cells” value (A2058 cells) was “not evident”, the “difference in sensitivity between 1q-trisomic and 1q-disomic cells” value (AGS cells) was “not evident” and the “sensitivity of DLD1 trisomy-1 cells compared to the parental DLD1 cells” value (DLD1 colon cancer cells) was “significantly more sensitive”. The “correlation of UCK2 expression with sensitivity to the compound” value (NCI-60 cell line panel) was “higher UCK2 expression correlates with greater sensitivity”.
